Values of other authors in patent US20100183693A1 (priority 2005, published 2010).
Entries after “also recorded” stand apart in the source; their conditions may differ. Like-named read-outs stand apart in the source and are kept apart here.

## O=[O+][O-] [Sample O3, ozone]
pH 6.8
  Effectiveness of Biocides (rank order): BCDMH < ozone; also recorded: NaOCl < ozone
pH 8
  Effectiveness of Biocides (rank order): NaOCl < ozone

## [O][Cl+][O-] [ClO2, chlorine dioxide]
pH 6.8
  Effectiveness of Biocides (rank order): Cl2 < NaOCl < HOCl + NaBr < ClO2 <; also recorded: ClO2 < HOCl + NaBr < BCDMH < Cl2 <
pH 8
  Effectiveness of Biocides (rank order): HOCl + NaBr < ClO2 < BCDMH < Cl2 <

## CC1(C)C(=O)N(Cl)C(=O)N1Br [BCDMH, bromo-chlorodimethyl hydantoin]
pH 6.8
  Effectiveness of Biocides (rank order): BCDMH < ozone; also recorded: ClO2 < HOCl + NaBr < BCDMH < Cl2 <
pH 8
  Effectiveness of Biocides (rank order): HOCl + NaBr < ClO2 < BCDMH < Cl2 <

## [Na+].[O-]Cl [NaOCl]
pH 6.8
  Effectiveness of Biocides (rank order): Cl2 < NaOCl < HOCl + NaBr < ClO2 <; also recorded: NaOCl < ozone
pH 8
  Effectiveness of Biocides (rank order): NaOCl < ozone
